Laboratory results as given in patent publication EP2794556B1, “BIS-(ARYL/HETEROARYL)-METHYLENE COMPOUNDS, PHARMACEUTICAL COMPOSITIONS CONTAINING SAME AND THEIR USE FOR TREATING CANCER” (Gleason, James L., priority 2011, dated 2013).

Experiments:
TK-10 = assay: NCI 60 cell panel
OVCAR-4 = assay: NCI 60 cell panel
SK-MEL-5 = assay: NCI 60 cell panel
HCC-2998 = assay: NCI 60 cell panel
CCRF-CEM = assay: NCI 60 cell panel
SN12C = assay: NCI 60 cell panel
OVCAR-3 = assay: NCI 60 cell panel
U251 = assay: NCI 60 cell panel
SNB-19 = assay: NCI 60 cell panel
SF-539 = assay: NCI 60 cell panel
A498 = assay: NCI 60 cell panel
UACC-62 = assay: NCI 60 cell panel
OVCAR-5 = assay: NCI 60 cell panel
MCF7 = assay: NCI 60 cell panel
SNB-75 = assay: NCI 60 cell panel
SCC4 cells = assay: MTS cell proliferation assay; format: cell-based, human; details: vitamin D resistant SCC4 cells, Figures 7c, 8 and 9
Excerpt: Dose-dependent effects of compounds on cell cycle progression was monitored using a CellTiter 96 Aqueous Non-Radioactive Cell Proliferation Assay Kit (Promega). The assay composed of solutions of a novel tetrazolium compound (MTS) and an electron coupling reagent (phenazine methosulfate; PMS). MTS is reduced by metabolically active cells into a soluble formazan product that absorbs at 490nm. The quantity of formazan product absorbing at 490nm is directly proportional to the number of living cells.

MDA-MB-468 = assay: NCI 60 cell panel
SF-295 = assay: NCI 60 cell panel
IGROVI = assay: NCI 60 cell panel
KM12 = assay: NCI 60 cell panel
NCI/ADR-RES = assay: NCI 60 cell panel
MDA-MB-435 = assay: NCI 60 cell panel
M14 = assay: NCI 60 cell panel
EKVX = assay: NCI 60 cell panel
PC-3 = assay: NCI 60 cell panel
LOX IMVI = assay: NCI 60 cell panel
DU-145 = assay: NCI 60 cell panel
SK-MEL-28 = assay: NCI 60 cell panel
SK-MEL-2 = assay: NCI 60 cell panel

Q: Which GI50 (TK-10; Homo sapiens, TK-10) does the source give for `CCC(CC)(c1ccc(OCC(=O)NO)c(C)c1)c1ccc(OCC(O)C(C)(C)C)c(C)c1` (racemic) [JF-B01, N-Hydroxy-2-(4-(3-(4-(2-hydroxy-3,3-dimethylbutoxy)-3-methylphenyl)pentan-3-yl)-2-methylphenoxy)acetamide] here?
A: Its GI50 is 2830 nM.

Q: What about the CC50 (TK-10; Homo sapiens, TK-10, read-out: LC50) of the same molecule?
A: Its CC50 is 42.8 µM.

Q: And the TGI (TK-10; Renal Cancer, TK-10)?
A: Its TGI is 1.60E-5.

Q: And the GI50 (OVCAR-4; Homo sapiens, OVCAR-4)?
A: Its GI50 is 1880 nM.

Q: And the CC50 (OVCAR-4; Homo sapiens, OVCAR-4, read-out: LC50)?
A: The CC50 was 32 µM.

Q: What about the TGI (OVCAR-4; Ovarian Cancer, OVCAR-4) of the same molecule?
A: Its TGI is 9.44E-6.

Q: And the GI50 (SK-MEL-5; Homo sapiens, SK-MEL-5)?
A: The GI50 was 1390 nM.

Q: What about the CC50 (SK-MEL-5; Homo sapiens, SK-MEL-5, read-out: LC50) of the same molecule?
A: Its CC50 is 5.58 µM.

Q: And the TGI (SK-MEL-5; Melanoma, SK-MEL-5)?
A: Its TGI is 2.79E-6.

Q: And the TGI (HCC-2998; Colon Cancer, HCC-2998)?
A: The TGI was 1.55E-5.

Q: And the GI50 (HCC-2998; Homo sapiens, HCC 2998)?
A: The GI50 was 4.23 µM.

Q: What about the CC50 (HCC-2998; Homo sapiens, HCC 2998, read-out: LC50) of the same molecule?
A: Its CC50 is 41.2 µM.

Q: And the GI50 (CCRF-CEM; Homo sapiens)?
A: Its GI50 is 576 nM.

Q: What about the CC50 (CCRF-CEM; Homo sapiens, read-out: LC50) of the same molecule?
A: The CC50 was 42.2 µM.

Q: And the TGI (CCRF-CEM; Leukemia)?
A: The TGI was 4.80E-6.

Q: And the GI50 (SN12C; Homo sapiens)?
A: Its GI50 is 3.87 µM.

Q: And the CC50 (SN12C; Homo sapiens, read-out: LC50)?
A: The CC50 was 40.3 µM.

Q: What about the TGI (SN12C; Renal Cancer) of the same molecule?
A: Its TGI is 1.59E-5.

Q: And the GI50 (OVCAR-3; Homo sapiens, OVCAR-3)?
A: The GI50 was 1730 nM.

Q: What about the CC50 (OVCAR-3; Homo sapiens, OVCAR-3, read-out: LC50) of the same molecule?
A: The CC50 was 21.6 µM.

Q: What about the TGI (OVCAR-3; Ovarian Cancer, OVCAR-3) of the same molecule?
A: Its TGI is 5.59E-6.

Q: And the TGI (U251; CNS Cancer, U251)?
A: The TGI was 1.23E-5.

Q: What about the GI50 (U251; Homo sapiens, U-251) of the same molecule?
A: The GI50 was 2340 nM.

Q: What about the CC50 (U251; Homo sapiens, U-251, read-out: LC50) of the same molecule?
A: The CC50 was 40 µM.

Q: And the TGI (SNB-19; CNS Cancer, SNB-19)?
A: Its TGI is 1.12E-5.

Q: And the GI50 (SNB-19; Homo sapiens, SNB-19)?
A: Its GI50 is 2410 nM.

Q: And the CC50 (SNB-19; Homo sapiens, SNB-19, read-out: LC50)?
A: Its CC50 is 33.5 µM.

Q: And the TGI (SF-539; CNS Cancer, SF-539)?
A: The TGI was 2.74E-5.

Q: And the GI50 (SF-539; Homo sapiens, SF-539)?
A: Its GI50 is 13.7 µM.

Q: And the CC50 (SF-539; Homo sapiens, SF-539, read-out: LC50)?
A: The CC50 was 54.9 µM.

Q: And the GI50 (A498; Homo sapiens, A498)?
A: The GI50 was 4.56 µM.

Q: And the CC50 (A498; Homo sapiens, A498, read-out: LC50)?
A: The CC50 was 45.6 µM.

Q: What about the TGI (A498; Renal Cancer, A498) of the same molecule?
A: The TGI was 2.08E-5.

Q: What about the GI50 (UACC-62; Homo sapiens, UACC-62) of the same molecule?
A: The GI50 was 1680 nM.

Q: What about the CC50 (UACC-62; Homo sapiens, UACC-62, read-out: LC50) of the same molecule?
A: The CC50 was 11.5 µM.

Q: And the TGI (UACC-62; Melanoma, UACC-62)?
A: Its TGI is 4.22E-6.

Q: And the GI50 (OVCAR-5; Homo sapiens, OVCAR-5)?
A: The GI50 was 12.9 µM.

Q: And the CC50 (OVCAR-5; Homo sapiens, OVCAR-5, read-out: LC50)?
A: The CC50 was 50.6 µM.

Q: What about the TGI (OVCAR-5; Ovarian Cancer, OVCAR-5) of the same molecule?
A: The TGI was 2.56E-5.

Q: And the TGI (MCF7; Breast Cancer, MCF7)?
A: Its TGI is 2.70E-6.

Q: What about the GI50 (MCF7; Homo sapiens, MCF7) of the same molecule?
A: The GI50 was 333 nM.

Q: What about the CC50 (MCF7; Homo sapiens, MCF7, read-out: LC50) of the same molecule?
A: The CC50 was 12.8 µM.

Q: And the TGI (SNB-75; CNS Cancer, SNB-75)?
A: Its TGI is 1.90E-5.

Q: What about the GI50 (SNB-75; Homo sapiens, SNB-75) of the same molecule?
A: Its GI50 is 48.2 nM.

Q: What about the CC50 (SNB-75; Homo sapiens, SNB-75, read-out: LC50) of the same molecule?
A: Its CC50 is 62 µM.

Q: What about the antiproliferative potency (SCC4 cells) of the same molecule?
A: The antiproliferative potency was “low micromolar potency”.

Q: What about the TGI (MDA-MB-468; Breast Cancer, MDA-MB-468) of the same molecule?
A: The TGI was 3.53E-6.

Q: And the GI50 (MDA-MB-468; Homo sapiens, MDA-MB-468)?
A: Its GI50 is 1570 nM.

Q: And the CC50 (MDA-MB-468; Homo sapiens, MDA-MB-468, read-out: LC50)?
A: The CC50 was 7.92 µM.

Q: And the TGI (SF-295; CNS Cancer, SF-295)?
A: Its TGI is 2.02E-5.

Q: And the GI50 (SF-295; Homo sapiens, SF-295)?
A: The GI50 was 7.61 µM.

Q: And the CC50 (SF-295; Homo sapiens, SF-295, read-out: LC50)?
A: The CC50 was 44.9 µM.

Q: And the GI50 (IGROVI; Homo sapiens)?
A: Its GI50 is 2080 nM.

Q: What about the CC50 (IGROVI; Homo sapiens, read-out: LC50) of the same molecule?
A: Its CC50 is 19.2 µM.

Q: And the TGI (IGROVI; Ovarian Cancer, IGROVI)?
A: Its TGI is 5.25E-6.

Q: And the TGI (KM12; Colon Cancer, KM12)?
A: The TGI was 8.17E-6.

Q: What about the GI50 (KM12; Homo sapiens, KM12) of the same molecule?
A: Its GI50 is 2150 nM.

Q: What about the CC50 (KM12; Homo sapiens, KM12, read-out: LC50) of the same molecule?
A: The CC50 was 28.8 µM.

Q: And the GI50 (NCI/ADR-RES; Homo sapiens)?
A: Its GI50 is 4.39 µM.

Q: And the CC50 (NCI/ADR-RES; Homo sapiens, read-out: LC50)?
A: Its CC50 is 41.9 µM.

Q: And the TGI (NCI/ADR-RES; Ovarian Cancer)?
A: Its TGI is 1.67E-5.

Q: What about the GI50 (MDA-MB-435; Homo sapiens, MDA-MB-435) of the same molecule?
A: Its GI50 is 2080 nM.

Q: What about the CC50 (MDA-MB-435; Homo sapiens, MDA-MB-435, read-out: LC50) of the same molecule?
A: Its CC50 is 16.7 µM.

Q: And the TGI (MDA-MB-435; Melanoma, MDA-MB-435)?
A: Its TGI is 5.20E-6.

Q: What about the GI50 (M14; Homo sapiens, M14) of the same molecule?
A: The GI50 was 2300 nM.

Q: And the CC50 (M14; Homo sapiens, M14, read-out: LC50)?
A: Its CC50 is 16.5 µM.

Q: What about the TGI (M14; Melanoma, M14) of the same molecule?
A: Its TGI is 5.33E-6.

Q: What about the GI50 (EKVX; Homo sapiens) of the same molecule?
A: The GI50 was 2870 nM.

Q: What about the CC50 (EKVX; Homo sapiens, read-out: LC50) of the same molecule?
A: Its CC50 is 35.3 µM.

Q: And the TGI (EKVX; Non-Small Cell Lung Cancer)?
A: The TGI was 1.24E-5.

Q: And the GI50 (PC-3; Homo sapiens, PC-3)?
A: Its GI50 is 3.04 µM.

Q: What about the CC50 (PC-3; Homo sapiens, PC-3, read-out: LC50) of the same molecule?
A: Its CC50 is 41.8 µM.

Q: What about the TGI (PC-3; Prostate Cancer, PC-3) of the same molecule?
A: Its TGI is 1.23E-5.

Q: What about the GI50 (LOX IMVI; Homo sapiens) of the same molecule?
A: Its GI50 is 183 nM.

Q: And the CC50 (LOX IMVI; Homo sapiens, read-out: LC50)?
A: Its CC50 is 602 nM.

Q: And the TGI (LOX IMVI; Melanoma)?
A: The TGI was 3.32E-7.

Q: And the GI50 (DU-145; Homo sapiens, DU-145)?
A: The GI50 was 13 µM.

Q: And the CC50 (DU-145; Homo sapiens, DU-145, read-out: LC50)?
A: The CC50 was 50.6 µM.

Q: And the TGI (DU-145; Prostate Cancer, DU-145)?
A: Its TGI is 2.56E-5.

Q: What about the GI50 (SK-MEL-28; Homo sapiens, SK-MEL-28) of the same molecule?
A: The GI50 was 4.75 µM.

Q: What about the CC50 (SK-MEL-28; Homo sapiens, SK-MEL-28, read-out: LC50) of the same molecule?
A: The CC50 was 42.5 µM.

Q: And the TGI (SK-MEL-28; Melanoma, SK-MEL-28)?
A: The TGI was 1.75E-5.

Q: What about the GI50 (SK-MEL-2; Homo sapiens, SK-MEL-2) of the same molecule?
A: Its GI50 is 1900 nM.

Q: What about the CC50 (SK-MEL-2; Homo sapiens, SK-MEL-2, read-out: LC50) of the same molecule?
A: The CC50 was 30 µM.

Q: And the TGI (SK-MEL-2; Melanoma, SK-MEL-2)?
A: The TGI was 5.24E-6.
